According to article PMC9067983, “Identification of highly selective type II kinase inhibitors with chiral peptidomimetic tails” (Journal of Enzyme Inhibition and Medicinal Chemistry, 2022):
Where a SMILES comes first, the peptide text is derived from it. [ ]: non-standard residue; d: D form. The star is where a group is joined. X1 = Cc1ccc(Nc2ncc3c(n2)N(C)C(=O)N(c2cc(C(=O)*)ccc2C)C3)cn1; Aib = CC(C)(N)C(=O)O

How the values were obtained:
Test in all cases: kinase selectivity profiling
Format in all cases: biochemical
Details in all cases: 10µM ATP, read-out: % inhibition (relative to DMSO)
PRKX = biological target: T1, PRKX (Homo sapiens, UniProt P51817)
T1 construct: purchased Reaction Biology Corp
Procedure: (§1) Full panel kinase profiling and kinase IC50 measurement were performed by using Reaction Biology Corp. (San Diego, USA).

DYRK4 = biological target: T2, DYRK4 (Homo sapiens, UniProt Q9NR20)
T2 construct: purchased Reaction Biology Corp
Procedure: as §1

TAOK2/TAO1 = biological target: T3, TAOK2/TAO1 (Homo sapiens, UniProt Q9UL54)
T3 construct: purchased Reaction Biology Corp
Procedure: as §1

CLK3 = biological target: T4, CLK3 (Homo sapiens, UniProt P49761)
T4 construct: purchased Reaction Biology Corp
Procedure: as §1

MEKK6 = biological target: T5, MEKK6 (Homo sapiens, UniProt O95382)
T5 construct: purchased Reaction Biology Corp
T5 sequence (O95382 whole entry): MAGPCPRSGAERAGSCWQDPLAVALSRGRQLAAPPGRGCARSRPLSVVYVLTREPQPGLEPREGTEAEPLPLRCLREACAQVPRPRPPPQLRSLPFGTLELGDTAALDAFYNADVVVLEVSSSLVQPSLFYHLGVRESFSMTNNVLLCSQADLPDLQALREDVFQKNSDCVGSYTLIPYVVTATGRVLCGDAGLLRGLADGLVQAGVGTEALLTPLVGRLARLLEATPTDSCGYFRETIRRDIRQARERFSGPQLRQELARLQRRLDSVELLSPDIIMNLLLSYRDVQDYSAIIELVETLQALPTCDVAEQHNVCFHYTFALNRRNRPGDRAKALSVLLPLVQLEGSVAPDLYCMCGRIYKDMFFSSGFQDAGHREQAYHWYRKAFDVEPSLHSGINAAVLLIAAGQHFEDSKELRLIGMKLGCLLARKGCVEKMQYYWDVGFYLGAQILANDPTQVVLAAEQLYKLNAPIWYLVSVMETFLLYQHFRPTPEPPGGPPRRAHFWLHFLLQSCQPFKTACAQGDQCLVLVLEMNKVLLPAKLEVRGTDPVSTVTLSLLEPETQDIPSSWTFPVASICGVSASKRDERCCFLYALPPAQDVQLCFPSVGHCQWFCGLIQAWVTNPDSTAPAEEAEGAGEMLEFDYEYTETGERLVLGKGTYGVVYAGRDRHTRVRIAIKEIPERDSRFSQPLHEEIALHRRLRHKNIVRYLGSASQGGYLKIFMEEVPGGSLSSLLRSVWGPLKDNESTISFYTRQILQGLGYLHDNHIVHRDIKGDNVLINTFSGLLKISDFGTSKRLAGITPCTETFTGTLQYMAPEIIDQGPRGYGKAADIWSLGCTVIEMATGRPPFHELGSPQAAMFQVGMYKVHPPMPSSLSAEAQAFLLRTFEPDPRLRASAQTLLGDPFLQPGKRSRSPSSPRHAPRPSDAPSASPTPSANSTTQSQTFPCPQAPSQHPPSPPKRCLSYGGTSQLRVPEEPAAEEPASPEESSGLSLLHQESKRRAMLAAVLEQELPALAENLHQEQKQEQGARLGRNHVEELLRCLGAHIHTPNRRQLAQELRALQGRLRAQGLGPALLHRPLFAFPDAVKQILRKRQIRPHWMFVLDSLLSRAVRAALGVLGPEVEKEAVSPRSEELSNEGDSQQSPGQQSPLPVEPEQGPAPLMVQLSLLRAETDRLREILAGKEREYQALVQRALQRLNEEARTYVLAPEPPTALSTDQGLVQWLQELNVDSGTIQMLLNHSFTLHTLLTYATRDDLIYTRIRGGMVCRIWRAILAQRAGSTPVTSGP
Procedure: as §1

MYLK3 = biological target: T6, MYLK3 (Homo sapiens, UniProt Q32MK0)
T6 construct: purchased Reaction Biology Corp
Procedure: as §1

TTBK2 = biological target: T7, TTBK2 (Homo sapiens, UniProt Q6IQ55)
T7 construct: purchased Reaction Biology Corp
T7 sequence (Q6IQ55 whole entry): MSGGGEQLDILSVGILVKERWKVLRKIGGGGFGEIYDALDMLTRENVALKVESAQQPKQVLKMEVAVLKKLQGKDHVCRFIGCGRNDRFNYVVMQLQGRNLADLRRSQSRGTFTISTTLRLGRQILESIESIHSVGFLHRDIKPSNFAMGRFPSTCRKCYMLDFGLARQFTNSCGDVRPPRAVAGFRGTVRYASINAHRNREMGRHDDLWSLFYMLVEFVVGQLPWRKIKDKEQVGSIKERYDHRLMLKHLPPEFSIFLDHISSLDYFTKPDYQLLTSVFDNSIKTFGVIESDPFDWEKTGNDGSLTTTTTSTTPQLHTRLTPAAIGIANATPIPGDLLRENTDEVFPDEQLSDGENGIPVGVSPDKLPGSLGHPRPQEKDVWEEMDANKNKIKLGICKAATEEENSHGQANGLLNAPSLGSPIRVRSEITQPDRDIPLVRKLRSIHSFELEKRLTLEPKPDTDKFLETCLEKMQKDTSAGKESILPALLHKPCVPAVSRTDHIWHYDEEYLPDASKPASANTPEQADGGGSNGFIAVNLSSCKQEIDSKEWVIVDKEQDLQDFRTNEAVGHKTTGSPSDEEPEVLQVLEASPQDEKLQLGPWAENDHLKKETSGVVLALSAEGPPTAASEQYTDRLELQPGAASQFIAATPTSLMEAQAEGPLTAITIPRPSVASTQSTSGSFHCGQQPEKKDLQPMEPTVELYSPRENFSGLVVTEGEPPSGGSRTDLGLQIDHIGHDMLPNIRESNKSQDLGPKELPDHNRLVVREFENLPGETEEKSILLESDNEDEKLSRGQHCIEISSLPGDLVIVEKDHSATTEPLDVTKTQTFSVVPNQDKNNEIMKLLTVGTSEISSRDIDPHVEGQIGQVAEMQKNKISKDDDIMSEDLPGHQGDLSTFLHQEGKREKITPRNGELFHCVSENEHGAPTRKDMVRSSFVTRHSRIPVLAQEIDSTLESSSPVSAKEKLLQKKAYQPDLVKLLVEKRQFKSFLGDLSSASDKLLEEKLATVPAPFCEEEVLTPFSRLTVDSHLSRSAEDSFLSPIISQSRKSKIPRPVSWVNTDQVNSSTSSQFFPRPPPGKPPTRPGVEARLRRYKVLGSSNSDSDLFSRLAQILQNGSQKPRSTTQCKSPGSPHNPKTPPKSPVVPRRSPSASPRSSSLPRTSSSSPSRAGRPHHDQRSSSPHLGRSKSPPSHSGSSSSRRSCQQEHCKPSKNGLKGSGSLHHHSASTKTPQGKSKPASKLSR
Procedure: as §1

RAF1 = biological target: T8, RAF1 (Homo sapiens, UniProt P04049)
T8 construct: purchased Reaction Biology Corp
Procedure: as §1

PEAK1 = biological target: T9, PEAK1 (Homo sapiens, UniProt Q9H792)
T9 construct: purchased Reaction Biology Corp
Procedure: as §1

NEK1 = biological target: T10, NEK1 (Homo sapiens, UniProt Q96PY6)
T10 construct: purchased Reaction Biology Corp
T10 sequence (Q96PY6 whole entry): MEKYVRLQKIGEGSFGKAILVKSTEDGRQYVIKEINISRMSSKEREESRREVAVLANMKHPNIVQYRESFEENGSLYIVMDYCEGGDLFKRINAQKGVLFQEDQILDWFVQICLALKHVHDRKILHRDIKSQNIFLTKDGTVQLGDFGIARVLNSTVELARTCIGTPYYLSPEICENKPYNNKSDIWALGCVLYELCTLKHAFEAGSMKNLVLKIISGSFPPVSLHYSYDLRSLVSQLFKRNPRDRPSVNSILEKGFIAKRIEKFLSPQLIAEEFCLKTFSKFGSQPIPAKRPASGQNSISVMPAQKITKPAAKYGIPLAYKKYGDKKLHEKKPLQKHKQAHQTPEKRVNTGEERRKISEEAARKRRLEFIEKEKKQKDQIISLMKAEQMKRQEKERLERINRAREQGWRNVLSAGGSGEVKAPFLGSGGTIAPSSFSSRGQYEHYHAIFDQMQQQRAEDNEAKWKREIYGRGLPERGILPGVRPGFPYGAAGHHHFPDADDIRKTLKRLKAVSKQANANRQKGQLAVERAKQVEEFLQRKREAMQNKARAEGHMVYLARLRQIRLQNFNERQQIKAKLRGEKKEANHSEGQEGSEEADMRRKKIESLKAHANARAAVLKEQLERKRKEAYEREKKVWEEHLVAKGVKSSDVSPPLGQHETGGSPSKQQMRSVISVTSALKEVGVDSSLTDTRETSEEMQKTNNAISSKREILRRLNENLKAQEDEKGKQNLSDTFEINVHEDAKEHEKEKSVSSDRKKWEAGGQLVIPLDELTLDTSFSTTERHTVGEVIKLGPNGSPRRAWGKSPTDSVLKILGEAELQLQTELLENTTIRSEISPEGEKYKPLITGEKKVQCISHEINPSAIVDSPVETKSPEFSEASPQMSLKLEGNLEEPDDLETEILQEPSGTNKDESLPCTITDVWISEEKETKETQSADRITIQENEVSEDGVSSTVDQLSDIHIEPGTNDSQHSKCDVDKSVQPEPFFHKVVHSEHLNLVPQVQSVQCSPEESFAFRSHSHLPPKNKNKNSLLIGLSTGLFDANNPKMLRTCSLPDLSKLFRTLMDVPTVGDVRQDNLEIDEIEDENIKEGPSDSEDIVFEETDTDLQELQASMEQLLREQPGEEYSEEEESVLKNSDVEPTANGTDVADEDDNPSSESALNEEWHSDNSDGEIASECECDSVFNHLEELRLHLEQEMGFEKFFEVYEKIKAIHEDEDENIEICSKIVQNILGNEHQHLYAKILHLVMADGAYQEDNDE
Procedure: as §1

p38b/MAPK11 = biological target: T11, p38b/MAPK11 (Homo sapiens, UniProt Q15759)
T11 construct: purchased Reaction Biology Corp
T11 sequence (Q15759 whole entry): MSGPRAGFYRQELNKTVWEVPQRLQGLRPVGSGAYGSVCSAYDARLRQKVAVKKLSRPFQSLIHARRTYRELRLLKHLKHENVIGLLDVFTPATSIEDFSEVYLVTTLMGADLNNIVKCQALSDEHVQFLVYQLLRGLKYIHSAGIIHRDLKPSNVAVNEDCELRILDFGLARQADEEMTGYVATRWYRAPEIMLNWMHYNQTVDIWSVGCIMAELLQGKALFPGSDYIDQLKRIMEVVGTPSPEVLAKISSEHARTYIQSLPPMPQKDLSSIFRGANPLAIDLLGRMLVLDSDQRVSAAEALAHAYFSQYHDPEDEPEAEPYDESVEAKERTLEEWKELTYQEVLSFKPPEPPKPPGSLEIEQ
Procedure: as §1

SGK2 = biological target: T12, SGK2 (Homo sapiens, UniProt Q9HBY8)
T12 construct: purchased Reaction Biology Corp
Procedure: as §1

PAK1 = biological target: T13, PAK1 (Homo sapiens, UniProt Q13153)
T13 construct: purchased Reaction Biology Corp
Procedure: as §1

p70S6K/RPS6KB1 = biological target: T14, p70S6K/RPS6KB1 (Homo sapiens, UniProt P23443)
T14 construct: purchased Reaction Biology Corp
Procedure: as §1

ULK3 = biological target: T15, ULK3 (Homo sapiens, UniProt Q6PHR2)
T15 construct: purchased Reaction Biology Corp
Procedure: as §1

LKB1 = biological target: T16, LKB1 (Homo sapiens, UniProt Q15831)
T16 construct: purchased Reaction Biology Corp
Procedure: as §1

MEKK3 = biological target: T17, MEKK3 (Homo sapiens, UniProt Q99759)
T17 construct: purchased Reaction Biology Corp
T17 sequence (Q99759 whole entry): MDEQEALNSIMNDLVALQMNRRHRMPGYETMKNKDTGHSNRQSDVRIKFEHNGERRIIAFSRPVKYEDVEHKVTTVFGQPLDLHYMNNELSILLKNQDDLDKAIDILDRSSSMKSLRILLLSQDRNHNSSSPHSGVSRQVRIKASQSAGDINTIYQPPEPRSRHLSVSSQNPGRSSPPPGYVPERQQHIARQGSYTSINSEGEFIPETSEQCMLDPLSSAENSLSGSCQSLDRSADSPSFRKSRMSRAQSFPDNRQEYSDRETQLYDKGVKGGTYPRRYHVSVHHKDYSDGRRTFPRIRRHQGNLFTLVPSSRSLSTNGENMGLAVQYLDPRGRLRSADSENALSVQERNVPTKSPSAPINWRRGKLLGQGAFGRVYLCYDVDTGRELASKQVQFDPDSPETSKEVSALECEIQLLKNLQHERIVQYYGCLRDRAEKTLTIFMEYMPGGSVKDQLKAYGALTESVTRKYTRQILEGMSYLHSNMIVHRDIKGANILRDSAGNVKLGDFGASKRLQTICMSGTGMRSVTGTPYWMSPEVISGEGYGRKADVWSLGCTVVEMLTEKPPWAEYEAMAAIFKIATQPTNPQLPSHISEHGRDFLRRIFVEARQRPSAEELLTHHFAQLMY
Procedure: as §1

PKN1/PRK1 = biological target: T18, PKN1/PRK1 (Homo sapiens, UniProt Q16512)
T18 construct: purchased Reaction Biology Corp
Procedure: as §1

CDK18/cyclin Y (PCTK3) = biological target: T19, CDK18/cyclin Y (PCTK3) (Homo sapiens, UniProt Q07002)
T19 construct: purchased Reaction Biology Corp
Procedure: as §1

MEKK1 = biological target: T20, MEKK1 (Homo sapiens, UniProt Q13233)
T20 construct: purchased Reaction Biology Corp
Procedure: as §1

CDK2/cyclin E = biological target: T21, CDK2/cyclin E (Homo sapiens, UniProt P24941)
T21 construct: purchased Reaction Biology Corp
Procedure: as §1

DMPK2 = biological target: T22, DMPK2 (Homo sapiens, UniProt Q6DT37)
T22 construct: purchased Reaction Biology Corp
Procedure: as §1

CDK2/cyclin A = biological target: T23, CDK2/cyclin A (Homo sapiens, UniProt P24941)
T23 construct: purchased Reaction Biology Corp
Procedure: as §1

DYRK3 = biological target: T24, DYRK3 (Homo sapiens, UniProt O43781)
T24 construct: purchased Reaction Biology Corp
Procedure: as §1

PKN2/PRK2 = biological target: T25, PKN2/PRK2 (Homo sapiens, UniProt Q16513)
T25 construct: purchased Reaction Biology Corp
Procedure: as §1

OSR1/OXSR1 = biological target: T26, OSR1/OXSR1 (Homo sapiens, UniProt O95747)
T26 construct: purchased Reaction Biology Corp
Procedure: as §1

PKCnu/PRKD3 = biological target: T27, PKCnu/PRKD3 (Homo sapiens, UniProt O94806)
T27 construct: purchased Reaction Biology Corp
Procedure: as §1

EPHB2 = biological target: T28, EPHB2 (Homo sapiens, UniProt P29323)
T28 construct: purchased Reaction Biology Corp
Procedure: as §1

MARK1 = biological target: T29, MARK1 (Homo sapiens, UniProt Q9P0L2)
T29 construct: purchased Reaction Biology Corp
Procedure: as §1

GRK6 = biological target: T30, GRK6 (Homo sapiens, UniProt P43250)
T30 construct: purchased Reaction Biology Corp
Procedure: as §1

MARK3 = biological target: T31, MARK3 (Homo sapiens, UniProt P27448)
T31 construct: purchased Reaction Biology Corp
Procedure: as §1

AKT3 = biological target: T32, AKT3 (Homo sapiens, UniProt Q9Y243)
T32 construct: purchased Reaction Biology Corp
Procedure: as §1

PKMYT1 = biological target: T33, PKMYT1 (Homo sapiens, UniProt Q99640)
T33 construct: purchased Reaction Biology Corp
Procedure: as §1

MELK = biological target: T34, MELK (Homo sapiens, UniProt Q14680)
T34 construct: purchased Reaction Biology Corp
Procedure: as §1

EPHA1 = biological target: T35, EPHA1 (Homo sapiens, UniProt P21709)
T35 construct: purchased Reaction Biology Corp
Procedure: as §1

LRRK2 = biological target: T36, LRRK2 (Homo sapiens, UniProt Q5S007)
T36 construct: purchased Reaction Biology Corp
Procedure: as §1

CTK/MATK = biological target: T37, CTK/MATK (Homo sapiens, UniProt P42679)
T37 construct: purchased Reaction Biology Corp
Procedure: as §1

TTBK1 = biological target: T38, TTBK1 (Homo sapiens, UniProt Q5TCY1)
T38 construct: purchased Reaction Biology Corp
Procedure: as §1

EPHA6 = biological target: T39, EPHA6 (Homo sapiens, UniProt Q9UF33)
T39 construct: purchased Reaction Biology Corp
Procedure: as §1

GCK/MAP4K2 = biological target: T40, GCK/MAP4K2 (Homo sapiens, UniProt Q12851)
T40 construct: purchased Reaction Biology Corp
Procedure: as §1

LIMK1 = biological target: T41, LIMK1 (Homo sapiens, UniProt P53667)
T41 construct: purchased Reaction Biology Corp
Procedure: as §1

NEK3 = biological target: T42, NEK3 (Homo sapiens, UniProt P51956)
T42 construct: purchased Reaction Biology Corp
Procedure: as §1

GLK/MAP4K3 = biological target: T43, GLK/MAP4K3 (Homo sapiens, UniProt Q8IVH8)
T43 construct: purchased Reaction Biology Corp
Procedure: as §1

Structure (SMILES): Cc1ccc(Nc2ncc3c(n2)N(C)C(=O)N(c2cc(C(=O)N[C@H](C(=O)N4CCC[C@H]4C(=O)NC(C)(C)C(=O)N[C@@H](CC(C)C)C(=O)N(C)C)C(C)C)ccc2C)C3)cn1 [7a, (S)-N-(1-(((S)-1-(dimethylamino)-4-methyl-1-oxopentan-2-yl)amino)-2-methyl-1-oxopropan-2-yl)-1-((4-methyl-3-(1-methyl-7-((6-methylpyridin-3-yl)amino)-2-oxo-1,4-dihydropyrimido[4,5-d]pyrimidin-3(2H)-yl)benzoyl)-L-valyl)pyrrolidine-2-carboxamide] (X1-VP[Aib]L-NMe2)
- inhibition at 1 µM (PRKX): 0%
- inhibition at 1 µM (DYRK4): 3%
- inhibition at 1 µM (TAOK2/TAO1): 4%
- inhibition at 1 µM (CLK3): 17%
- inhibition at 1 µM (MEKK6): 0%
- inhibition at 1 µM (MYLK3): 0%
- inhibition at 1 µM (TTBK2): 7%
- inhibition at 1 µM (RAF1): 69%
- inhibition at 1 µM (PEAK1): 44%
- inhibition at 1 µM (NEK1): 0%
- inhibition at 1 µM (p38b/MAPK11): 13%
- inhibition at 1 µM (SGK2): 0%
- inhibition at 1 µM (PAK1): 5%
- inhibition at 1 µM (p70S6K/RPS6KB1): 0%
- inhibition at 1 µM (ULK3): 0%
- inhibition at 1 µM (LKB1): 0%
- inhibition at 1 µM (MEKK3): 11%
- inhibition at 1 µM (PKN1/PRK1): 1%
- inhibition at 1 µM (CDK18/cyclin Y (PCTK3)): 4%
- inhibition at 1 µM (MEKK1): 3%
- inhibition at 1 µM (CDK2/cyclin E): 0%
- inhibition at 1 µM (DMPK2): 0%
- inhibition at 1 µM (CDK2/cyclin A): 0%
- inhibition at 1 µM (DYRK3): 23%
- inhibition at 1 µM (PKN2/PRK2): 0%
- inhibition at 1 µM (OSR1/OXSR1): 6%
- inhibition at 1 µM (PKCnu/PRKD3): 0%
- inhibition at 1 µM (EPHB2): 29%
- inhibition at 1 µM (MARK1): 0%
- inhibition at 1 µM (GRK6): 4%
- inhibition at 1 µM (MARK3): 4%
- inhibition at 1 µM (AKT3): 10%
- inhibition at 1 µM (PKMYT1): 8%
- inhibition at 1 µM (MELK): 4%
- inhibition at 1 µM (EPHA1): 3%
- inhibition at 1 µM (LRRK2): 0%
- inhibition at 1 µM (CTK/MATK): 10%
- inhibition at 1 µM (TTBK1): 0%
- inhibition at 1 µM (EPHA6): 5%
- inhibition at 1 µM (GCK/MAP4K2): 13%
- inhibition at 1 µM (LIMK1): 51%
- inhibition at 1 µM (NEK3): 0%
- inhibition at 1 µM (GLK/MAP4K3): 9%
